# Laboratory results: patent US20130053400A1, “OLIGOMER-ANTIHISTAMINE CONJUGATES” (priority 2007, published 2013)
# “And” between values parts separate entries of the source, which are not always exact repeats. Equal entries are not always repeated. Where two headings read alike, the source gives them in different places.
# Tests used:
# [1] = molecular target: human recombinant H1 histamine receptors (Homo sapiens, UniProt P35367); assay: biochemical
# Procedure: (Caliper Life Sciences, Hopkinton, Mass.). […] This study was performed using duplicate samples per data point (n=2).
# Histamine (H1) = Histamine (H1) (Homo sapiens, UniProt P35367); assay: Histamine (H1) Binding Activity (Table I)
# Histamine (H1), sequence (P35367 whole entry): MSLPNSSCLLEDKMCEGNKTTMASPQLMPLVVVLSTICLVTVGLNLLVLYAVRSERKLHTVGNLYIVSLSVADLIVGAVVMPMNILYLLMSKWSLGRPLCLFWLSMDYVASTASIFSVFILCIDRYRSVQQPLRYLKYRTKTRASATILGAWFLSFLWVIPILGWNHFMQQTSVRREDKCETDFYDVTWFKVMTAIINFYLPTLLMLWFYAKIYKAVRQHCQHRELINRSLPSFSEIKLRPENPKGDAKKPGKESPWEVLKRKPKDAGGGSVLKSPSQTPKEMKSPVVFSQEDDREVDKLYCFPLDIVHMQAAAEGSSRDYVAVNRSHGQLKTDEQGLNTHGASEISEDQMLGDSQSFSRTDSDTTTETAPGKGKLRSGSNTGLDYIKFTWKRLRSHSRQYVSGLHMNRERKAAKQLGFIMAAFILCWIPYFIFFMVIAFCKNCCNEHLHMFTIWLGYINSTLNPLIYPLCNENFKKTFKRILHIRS
# [2] = tested on: spontaneously beating rat hearts; assay: In vitro safety pharmacology, spontaneously beating rat hearts
# Excerpt: The objective of this study was to determine the potential effects of escalating concentrations of conjugates on electrophysiological (PQ, QRS, RR, QT, QTc), and mechanical (dLVP/dtmax and dLVP/dtmin) properties in spontaneously beating rat hearts.
# [3] = tested on: histamine-induced wheal and flare; assay: Wheal and flare further study, intravenous infusion; format: in vivo, rats; settings: for antihistamine efficacy (wheal size): IV infusion, rats
# Procedure: Briefly, rats received a continuous infusion via the jugular vein catheter for 60 minutes. […] Sixty minutes after the start of the infusion period, the rats were given four (4) interdermal (ID) injections of histamine ([…] in saline; dose 50 μL at 10 μg/rat). […] Twenty minutes after the histamine injections a caliper (Fowler Sylvac Ultra-Cal Mark III) was used to measure the wheal and flare (the diameter of the blue area). Two measurements of the diameter of the blue area at the site of histamine injection were made at 90 degrees from one another. […] Blood samples collected via cardiac puncture were used for diphenhydramine quantitation. The blood samples were placed in vacutainer tubes containing K2 EDTA. The rats were exsanguinated and the brain was rinsed in ice cold saline, wrapped in foil and frozen. The brain and the plasma samples were analyzed for drug content.
# [4] = Pharmacokinetics and oral bioavailability in rats; format: in vivo; settings: for half-life: read-out: T ½ (converted); for Vd: read-out: Vss; for bioavailability: read-out: F (oral bioavailability)
# Procedure: For oral doses, 5 mg/kg if DPH-equivalent were used. […] Animals were dosed in triplicate by bolus injection to the femoral vein (IV) or oral gavage (PO), and whole blood was collected from the carotid artery from all animals at the appropriate time points for preparation of plasma samples. Quantitation of test article in plasma was performed by LC-MS/MS.
# [5] = Blood-brain barrier penetration, brain:plasma ratio after tail vein injection; settings: for Fold change (vs DPH): brain concentration, adjusted for DPH molar dose twice that of conjugates; for Kp at 1 h / concentration at 1 h: rat, intravenous; for Kp at 1 h: brain and plasma
# Procedure: The four compounds were tested following intravenous injection to the tail vein in rats.
# After ensuring a single rat remained viable following a test dose, the rats (4 per condition) were dosed by tail vein injection and were sacrificed one hour later. Blood was collected by cardiac puncture, and brain tissue was collected. Plasma was prepared and brain tissue homogenized to enable quantitation of drug content by LC-MS/MS.
# Concentrations of each compound were determined and brain:plasma ratios calculated accordingly.
# guinea pig hearts [6] = tested on: guinea pig hearts
# in vitro = settings: human, hepatocytes
# human hepatocytes = assay: Metabolic stability in human hepatocytes; settings: for metabolic breakdown / hepatic intrinsic clearance compared with diphenhydramine: human, hepatocytes
# Solubility = format: physicochemical; settings: Table I
# [7] = tested on: histamine-induced wheal and flare response; format: in vivo; settings: for percent decrease in the wheal response (change in wheal size): 20 minute time-point, 0.1-0.3 mg/kg dose range
# Procedure: Wheal and flare (erythema) experiments were performed in rats in order to measure in vivo activity of PEG-diphenhydramine. Intradermal injection of histamine produces a “wheal and flare” response in the skin as a result of histamine-induced mast cell degranulation, which is prevented by treatment with effective antihistamines.
# Histamine was prepared from histamine diphosphate salt at 1 mg/mL (3.26 mM) in PBS, and was administered by intradermal injection 2.5 minutes after IV injection of the test article to the tail vein. At 5, 10, 20, 30 and 60 minutes post-injection, wheal sizes were measured using calipers and areas calculated (width×length, mm^2). Flare responses were measured by eye, and were graded on a scoring system of 1 (least significant)-5 (most severe).
# rat hepatocyte = assay: Rat hepatocyte incubation
# hepatocytes = assay: Hepatocyte metabolism, dog
# [8] = molecular target: T1, cloned hERG channels stably expressed in HEK cells (Homo sapiens, UniProt Q12809); assay: hERG current inhibition, electrophysiology
# T1 sequence (Q12809 whole entry): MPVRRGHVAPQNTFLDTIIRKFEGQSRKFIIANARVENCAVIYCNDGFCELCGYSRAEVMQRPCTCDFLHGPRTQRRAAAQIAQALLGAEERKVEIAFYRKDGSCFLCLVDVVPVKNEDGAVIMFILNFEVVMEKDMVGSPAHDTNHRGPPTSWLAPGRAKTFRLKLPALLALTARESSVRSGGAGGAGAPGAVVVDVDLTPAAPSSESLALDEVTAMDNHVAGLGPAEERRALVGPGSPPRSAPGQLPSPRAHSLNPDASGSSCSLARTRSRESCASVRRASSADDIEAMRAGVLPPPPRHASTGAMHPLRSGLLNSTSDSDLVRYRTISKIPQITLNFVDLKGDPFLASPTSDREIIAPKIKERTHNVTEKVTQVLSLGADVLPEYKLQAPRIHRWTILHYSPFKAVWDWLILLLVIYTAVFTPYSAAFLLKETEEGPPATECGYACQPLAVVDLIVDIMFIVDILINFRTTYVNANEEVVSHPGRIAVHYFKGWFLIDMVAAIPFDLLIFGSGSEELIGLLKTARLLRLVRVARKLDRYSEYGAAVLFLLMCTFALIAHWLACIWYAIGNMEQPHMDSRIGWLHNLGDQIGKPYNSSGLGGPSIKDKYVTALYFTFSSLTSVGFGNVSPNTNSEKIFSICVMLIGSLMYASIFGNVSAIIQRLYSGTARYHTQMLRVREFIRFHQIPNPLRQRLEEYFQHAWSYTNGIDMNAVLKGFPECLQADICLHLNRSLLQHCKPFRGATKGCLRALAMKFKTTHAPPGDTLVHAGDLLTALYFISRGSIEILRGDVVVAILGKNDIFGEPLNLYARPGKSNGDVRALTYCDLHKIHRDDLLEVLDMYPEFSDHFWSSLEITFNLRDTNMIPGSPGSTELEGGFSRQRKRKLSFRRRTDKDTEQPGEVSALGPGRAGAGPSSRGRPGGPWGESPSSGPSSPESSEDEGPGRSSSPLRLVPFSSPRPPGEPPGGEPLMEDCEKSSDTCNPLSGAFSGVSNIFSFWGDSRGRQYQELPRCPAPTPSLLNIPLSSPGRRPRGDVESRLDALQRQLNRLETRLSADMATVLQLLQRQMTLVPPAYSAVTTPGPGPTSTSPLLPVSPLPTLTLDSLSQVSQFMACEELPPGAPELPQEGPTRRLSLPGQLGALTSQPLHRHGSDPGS
# guinea pig hearts [9] = assay: In vitro safety pharmacology, guinea pig hearts; settings: rat and guinea pig preparations responded similarly
# intact rat brain = settings: in vivo, 30 seconds, 20 μM
# [10] = molecular target: T1, cloned hERG channels stably expressed in HEK cells
# [11] = Ki ratio, repeated assay (asterisk), n=3
# [12] = repeated assay (asterisk), n=3 samples per data point
# [13] = rat, plasma, IV, 1 mg/kg DPH-equivalent
# [14] = rat, plasma, IV, 1 mg/kg DPH-equivalent, read-out: Cmax
# [15] = rat, plasma, oral 5 mg/kg vs IV 1 mg/kg
# [16] = rat, plasma, oral, 5 mg/kg DPH-equivalent
# [17] = rat, plasma, oral, 5 mg/kg DPH-equivalent, read-out: Cmax
# [18] = rat, plasma, oral, 5 mg/kg DPH-equivalent, read-out: Tmax
# [19] = one hour after tail vein injection, rats
# human recombinant H1 histamine receptors, sequence (P35367 whole entry): as the sequence (P35367 whole entry) above
smiles,measurement,setting,value
"COCCOCCOCCOCCN(C)CCOC(c1ccccc1)c1ccccc1 [mPEG(4)-N-Diphenhydramine, mPEG4-N-diphenhydramine]",Fold vs parent,[1]; [11],12.7
same,Ki,[1]; [12],200 nM
COCCOCCOCCOCCOCCN(C)CCOC(c1ccccc1)c1ccccc1 [mPEG5-N-diphenhydramine],IC50,Histamine (H1),600 nM
same,Fold vs parent,[1],11.1 and 14.6
same,Ki,[1],333 nM and 230 nM
same,dromotropism (PQ and QRS),[2],greater negative dromotropism (lengthening of PQ and QRS) than diphenhydramine
same,effect on coronary smooth muscle,[2],vasodilatory effect
same,ventricular repolarization (QT and QTc),[2],retard ventricular repolarization (QT and QTc) slightly more than diphenhydramine or quinidine
same,cardiodeceleration,[2]; 10^−5 M,greater cardiodeceleration
same,inotropism and lusitropism,[2]; 10^−5 M,striking positive inotropism and lusitropism
same,antihistamine efficacy (wheal size),[3],"demonstrated efficacy, but toxicity occurs at same concentrations"
same,fold weaker than diphenhydramine,[3]; efficacy at diphenhydramine-equivalent target plasma concentrations,≥ 10 fold
same,AUC(0-inf),[4]; [13],391 ng·h/mL
same,clearance,[4]; [13],69.5 mL/min/kg
same,Cmax,[4]; [14],821 ng/mL
same,half-life,[4]; [13],19.8 min
same,Vd,[4]; [13],1.98 L/kg
same,bioavailability,[4]; [15],1.5%
same,AUC(0-inf),[4]; [16],29.4 ng·h/mL
same,Cmax,[4]; [17],53.6 ng/mL
same,half-life,[4]; [16],22.8 min
same,Tmax,[4]; [18],15 min
same,Fold change (vs DPH),[5],28
same,Kp at 1 h,[5],0.2 to 1
same,concentration at 1 h,[5]; brain,97.9 ± 32.9 ng/g
same,concentration at 1 h,[5]; plasma,415 ± 78.7 ng/mL
same,Coronary perfusion,guinea pig hearts [6],increased dramatically
same,QRS and PQ durations,guinea pig hearts [6]; guinea pig,increase only for 10^−5 M concentration
same,half-life,in vitro,44.2 min
same,metabolic breakdown / hepatic intrinsic clearance compared with diphenhydramine,human hepatocytes,moderately faster metabolic breakdown than diphenhydramine
"COCCOCCOCCOCCOCCOCCN(CCOC(c1ccccc1)c1ccccc1)CCOC(c1ccccc1)c1ccccc1 [mPEG6-N-(Diphenhydramine)2, mPEGn-N-(diphenhydramine)2]",IC50,Histamine (H1); read-out: IC50,6500 nM
"COCCOCCOCCOCCOCCOCCNCCOC(c1ccccc1)c1ccccc1 [mPEG(6)-NH-Diphenhydramine, mPEG6-NH-diphenhydramine]",IC50,Histamine (H1); read-out: IC50,4120 nM
same,Fold vs parent,"[1]; Ki ratio, first run, n=2",62.5
same,Ki,"[1]; first run, n=2 samples per data point",1890 nM
"COCCOCCOCCN1CCN(C(c2ccccc2)c2ccc(Cl)cc2)CC1 (stereo not drawn) [PEG1 -Hydroxyzine, mPEG1-Hydroxyzine]",IC50,Histamine (H1); read-out: IC50,70.3 nM
same,Solubility,Solubility,soluble
"COCCOCCOCCN(C)CCOC(c1ccccc1)c1ccccc1 [mPEG(3)-N-Diphenhydramine, mPEG3-N-diphenhydramine]",Fold vs parent,[1]; [11],7.8
same,Ki,[1]; [12],124 nM
"COCCOCCOCCOCCOCCOCCOCCN1CCN(C(c2ccccc2)c2ccc(Cl)cc2)CC1 (stereo not drawn) [PEG5-Hydroxyzine, mPEG5-Hydroxyzine]",IC50,Histamine (H1); read-out: IC50,76.7 nM
same,Solubility,Solubility,soluble
"COCCOCCOCCOCCOCCOCCN(C)CCOC(c1ccccc1)c1ccccc1 [mPEG(6)-N-Diphenhydramine, mPEG6-N-diphenhydramine]",flare response (visual scoring),[7]; 0.03 mg/kg,flare responses begin to return
same,wheal size,[7]; 0.03 mg/kg,did not produce a detectable change in wheal size
same,toxicity in first animal dosed,"[7]; 1 mg/kg IV, rat",suffered convulsions and died
same,wheal size,"[7]; 0.1, 0.3 mg/kg",reduced the size of the wheal compared with control injection
same,percent decrease in the wheal response (change in wheal size),[7],approximately 25%
same,flare response (visual scoring),[7]; highest concentrations,no detectable flare
same,AUCinf,"[4]; IV, 1 mg/kg DPH-equivalent",405 ng·h/mL
same,CL,"[4]; IV, 1 mg/kg DPH-equivalent",73.32 mL/min/kg
same,Cmax,"[4]; IV, 1 mg/kg DPH-equivalent",790 ng/mL
same,T ½,"[4]; IV, 1 mg/kg DPH-equivalent",22.8 min
same,Vss,"[4]; IV, 1 mg/kg DPH-equivalent",1.91 L/kg
same,F (oral bioavailability),[4]; oral 5 mg/kg vs IV 1 mg/kg,2.4%
same,AUCinf,"[4]; oral, 5 mg/kg DPH-equivalent",49.1 ng·h/mL
same,Cmax,"[4]; oral, 5 mg/kg DPH-equivalent",81.9 ng/mL
same,T ½,"[4]; oral, 5 mg/kg DPH-equivalent",23.4 min
same,Tmax,"[4]; oral, 5 mg/kg DPH-equivalent",15 min
same,Brain concentration,[5]; [19],45.1 ± 4.4 ng/g
same,Plasma concentration,[5]; [19],237.0 ± 41.1 ng/mL
same,metabolic breakdown compared with diphenhydramine,rat hepatocyte,slower metabolic breakdown than diphenhydramine
same,hepatic intrinsic clearance compared with diphenhydramine,hepatocytes,faster than that of the parent diphenhydramine
same,Half-Life (t1/2) (hepatocytes),"human hepatocytes; human hepatocytes, initial rate of loss of parent, n=1",122.9 min
same,metabolic breakdown / hepatic intrinsic clearance compared with diphenhydramine,human hepatocytes,faster than that of the parent diphenhydramine
same,IC50,"[8]; read-out: IC50 hERG channel, hERG current, HEK cells",3790 nM
"COCCOCCOCCOCCOCCN1CCN(C(c2ccccc2)c2ccc(Cl)cc2)CC1 (stereo not drawn) [PEG3-Hydroxyzine, mPEG3-Hydroxyzine]",IC50,Histamine (H1); read-out: IC50,105 nM
same,Solubility,Solubility,soluble
C=C[C@H]1C[N@@]2CC[C@H]1C[C@@H]2[C@@H](O)c1ccnc2ccc(OC)cc12 [quinidine],QT,guinea pig hearts [9],lengthened dramatically
"CN(C)CCOC(c1ccccc1)c1ccccc1 [Diphenhydramine, reference compound]",flare response (visual scoring),[7]; 0.01 mg/kg,protective effect of diphenhydramine begins to decrease
same,flare response (visual scoring),[7]; 0.03 mg/kg,still suppresses the response effectively
same,percent decrease in the wheal response (change in wheal size),[7],approximately 40%
same,wheal size,[7]; all doses tested,clear dose-dependent reduction
same,flare response (visual scoring),[7]; highest concentrations,no detectable flare
same,antihistamine efficacy (wheal size),[3],dose dependent reduction in wheal size
"COCCOCCOCCOCCOCCNC(=O)COCCN1CCN(C(c2ccccc2)c2ccc(Cl)cc2)CC1 (stereo not drawn) [PEG5-Cetirizine, mPEG5-Cetirizine]",Solubility,Solubility,soluble
"OCCOCCN1CCN(C(c2ccccc2)c2ccc(Cl)cc2)CC1 (stereo not drawn) [Hydroxyzine, reference compound]",Normalized Brain Uptake Rate (Mean ± SD),intact rat brain,355.89 ± 59.02 pmole/gm brain/sec
Cc1cc(=O)n(-c2ccccc2)n1C [Antipyrine],Normalized Brain Uptake Rate (Mean ± SD),intact rat brain,17.4 ± 5.7 pmole/gm brain/sec
"COCCOCCOCCOCCOCCOCCOCCN(C)CCOC(c1ccccc1)c1ccccc1 [mPEG(7)-N-Diphenhydramine, mPEG7-N-diphenhydramine]",IC50,Histamine (H1),1730 nM
same,Fold vs parent,[1],20.1 and 28.7
same,Ki,[1],605 nM and 454 nM
same,antihistamine efficacy (wheal size),[3],no efficacy in concentration range tested
same,AUC(0-inf),[4]; [13],410 ng·h/mL
same,clearance,[4]; [13],78.4 mL/min/kg
same,Cmax,[4]; [14],882 ng/mL
same,half-life,[4]; [13],25.8 min
same,Vd,[4]; [13],2.07 L/kg
same,bioavailability,[4]; [15],1.3%
same,AUC(0-inf),[4]; [16],26.6 ng·h/mL
same,Cmax,[4]; [17],41.3 ng/mL
same,half-life,[4]; [16],28.2 min
same,Tmax,[4]; [18],15 min
same,Fold change (vs DPH),[5],26
same,Kp at 1 h,[5],0.2 to 1
same,concentration at 1 h,[5]; brain,106 ± 27.1 ng/g
same,concentration at 1 h,[5]; plasma,545 ± 57.9 ng/mL
same,IC50 fold lower,[10],4 fold
same,half-life,in vitro,88.4 min
same,IC50,[8],13000 nM
